Results reported in patent publication US20240002397A1, “3-AMINO PYRROLIDINE AND PIPERIDINE MACROCYCLIC OREXIN RECEPTOR AGONISTS” (Merck Sharp & Dohme LLC, priority 2020, published 2024).

target: T1, human OX2R (Homo sapiens, UniProt O43614); assay: IPOne (IP-1) orexin receptor agonist assay in CHO cells expressing human OX2R; conditions: CHO, hOX2R IP-One; percentage of mean max effect of a reference compound at 1 uM with 100% activity
T1 sequence (O43614 1-444): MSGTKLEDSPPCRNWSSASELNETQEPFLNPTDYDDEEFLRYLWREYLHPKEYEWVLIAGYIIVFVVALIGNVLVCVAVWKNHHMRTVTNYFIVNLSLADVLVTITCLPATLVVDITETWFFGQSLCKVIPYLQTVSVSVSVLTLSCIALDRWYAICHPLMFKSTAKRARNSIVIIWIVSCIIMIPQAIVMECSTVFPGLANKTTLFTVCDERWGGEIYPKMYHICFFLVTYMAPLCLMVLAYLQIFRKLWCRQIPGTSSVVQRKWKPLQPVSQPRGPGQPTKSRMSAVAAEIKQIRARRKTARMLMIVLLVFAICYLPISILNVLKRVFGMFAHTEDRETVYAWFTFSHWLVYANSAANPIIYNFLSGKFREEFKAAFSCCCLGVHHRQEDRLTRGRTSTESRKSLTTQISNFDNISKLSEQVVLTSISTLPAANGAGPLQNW

Emax [%]	Compound
102	CN(C)S(=O)(=O)N[C@H]1CCN2C(=O)CCCCNc3cccc(c3)[C@H]3CC[C@H](CC3)OC[C@@H]12 [Example 23, N′-((2^1S,2^4S,5^2R,5^3S)-6-oxo-3-oxa-11-aza-5(2,1)-pyrrolidina-1(1,3)-benzena-2(1,4)-cyclohexanacycloundecaphane-5^3-yl)-N,N-dimethyl-sulfamide]
100	C[C@@H]1C[C@H](NS(=O)(=O)N(C)C)[C@@H]2COC3CCC(CC3)c3cccc(c3)OCCCCCC(=O)N12 [Example 8, N′-((2^1S,2^4S,5^2R,5^3S,5^5R)-5^5-methyl-6-oxo-3,12-dioxa-5(2,1)-pyrrolidina-1(1,3)-benzena-2(1,4)-cyclohexanacyclododecaphane-5^3-yl)-N,N-dimethyl-sulfamide]
101	C[C@@H]1C[C@H](NS(=O)(=O)N(C)C)[C@@H]2COC3CCC(CC3)c3ccccc3CCOC(=O)N12 [Example 4, N′-((2′R,2^4R,5^2R,5^3S,5^5R)-5^5-methyl-6-oxo-3,7-dioxa-5(2,1)-pyrrolidina-1(1,2)-benzena-2(1,4)-cyclohexanacyclononaphane-5^3-yl)-N,N-dimethyl-sulfamide]
102	COC[C@@H]1C[C@H](NS(C)(=O)=O)C2COC3CCC(CC3)c3cc(C(F)(F)F)cc(n3)OCCCOC(=O)N21 (some centres unmarked) [Example 83, N-((2^1S,2^4S,5^2R,5^3S,5^5S)-5^5-(methoxymethyl)-6-oxo-1^4-(trifluoromethyl)-3,7,11-trioxa-1(2,6)-pyridina-5(2,1)-pyrrolidina-2(1,4)-cyclohexanacycloundecaphane-5^3-yl)methanesulfonamide]
102	CN(C)C[C@@H]1C[C@H](NS(C)(=O)=O)C2COC3CCC(CC3)c3cc(C(F)F)cc(n3)OCCCOC(=O)N21 (some centres unmarked) [Example 100, N-((2^1S,2^4S,5^2R,5^3S,5^5S)-1^4-(difluoromethyl)-5^5-((dimethylamino)methyl)-6-oxo-3,7,11-trioxa-1(2,6)-pyridina-5(2,1)-pyrrolidina-2(1,4)-cyclohexanacycloundecaphane-5^3-yl)methanesulfonamide]
93.1	CC(C)Oc1ccc2cc1C1CCC(CC1)OCC1[C@@H](NS(C)(=O)=O)C[C@@H](C)N1C(=O)OCCCO2 (some centres unmarked) [Example 63, N-((2^1S,2^4S,5^2R,5^3S,5^5R)-1^6-isopropoxy-5^5-methyl-6-oxo-3,7,11-trioxa-5(2,1)-pyrrolidina-1(1,3)-benzena-2(1,4)-cyclohexanacycloundecaphane-5^3-yl)methanesulfonamide]
103	C[C@@H]1C[C@H](NS(C)(=O)=O)C2COC3CCC(CC3)c3ccc(C#N)c(c3)OCCCOC(=O)N21 (some centres unmarked) [Example 45, N-((2^1S,2^4S, 5^2R,5^3S,5^5R)-1^4-cyano-5^5-methyl-6-oxo-3,7,11-trioxa-5(2,1)-pyrrolidina-1(1,3)-benzena-2(1,4)-cyclohexana-cyclounde-caphane-5^3-yl)methane-sulfonamide]
102	C[C@@H]1C[C@H](NS(C)(=O)=O)C2COC3CCC(CC3)c3cc(F)cc(c3)OCCCOC(=O)N21 (some centres unmarked) [Example 42, N-((2^1S,2^4S, 5^2R,5^3S,5^5R)-1^5-fluoro-5^5-methyl-6-oxo-3,7,11-trioxa-5(2,1)-pyrrolidina-1(1,3)-benzena-2(1,4)-cyclohexana-cyclounde-caphane-5^3-yl)methane-sulfonamide]
100	C[C@@H]1C[C@H](NS(=O)(=O)N(C)C)[C@@H]2COC3CCC(CC3)c3cccc(c3)OCCC=CC(=O)N12 [Example 9, N′-((2^1S,2^4S,5^2R,5^3S, 5^5R)-5^5-methyl-6-oxo-3,11-dioxa-5(2,1)-pyrrolidina-1(1,3)-benzena-2(1,4)-cyclohexanacycloundecaphan-7-en-5^3-yl)-N,N-dimethyl-sulfamide]
94.1	CN(C)S(=O)(=O)N[C@H]1CCCN2C(=O)OCCCCOc3cccc(c3)C3CCC(CC3)OC[C@@H]12 [Example 26, N′-((2^1S,2^4S,5^2R,5^3S)-6-oxo-3,7,12-trioxa-5(2,1)-piperidina-1(1,3)-benzena-2(1,4)-cyclohexanacyclododecaphane-5^3-yl)-N,N-dimethy-sulfamide]
100	CS(=O)(=O)N[C@H]1C[C@@H](CO)N2C(=O)OCCOc3ccc(C(F)(F)F)c(n3)[C@H]3CC[C@H](CC3)OC[C@@H]12 [Example 96, N-((2^1R,2^4R,5^2R,5^3S,5^5S)-5^5-(hydroxymethyl)-6-oxo-1^3-(trifluoromethyl)-3,7,10-trioxa-1(2,6)-pyridina-5(2,1)-pyrrolidina-2(1,4)-cyclohexanacyclodecaphane-5^3-yl)methanesulfonamide]
99.8	CS(=O)(=O)N[C@H]1C[C@@H](CC(N)=O)N2C(=O)OCCCOc3cc(C(F)F)cc(n3)C3CCC(CC3)OCC12 (some centres unmarked) [Example 102, 2-((2^1S,2^4S,5^2R,5^3S,5^5S)-1^4-(difluoromethyl)-5^3-(methylsulfonamido)-6-oxo-3,7,11-trioxa-1(2,6)-pyridina-5(2,1)-pyrrolidina-2(1,4)-cyclohexanacycloundecaphane-5^5-yl)acetamide]
101	CS(=O)(=O)N[C@H]1CCCN2C(=O)CCCCOc3cccc(c3)C3CCC(CC3)OC[C@@H]12 [Example 29, N-((2^1S,2^4S,5^2R,5^3S)-6-oxo-3,11-dioxa-5(2,1)-piperidina-1(1,3)-benzena-2(1,4)-cyclohexanacycloundecaphane-5^3-yl)methanesulfonamide]
101	COc1cc2nc(c1)C1CCC(CC1)OCC1[C@@H](NS(=O)(=O)CF)C[C@@H](C)N1C(=O)OCCCO2 (some centres unmarked) [Example 107, 1-fluoro-N-((2^1R,2^4R,5^2R, 5^3S,5^5R)-1^4-methoxy-5^5-methyl-6-oxo-3,7,11-trioxa-1(2,6)-pyridina-5(2,1)-pyrrolidina-2(1,4)-cyclohexanacycloundecaphane-5^3-yl)methanesulfonamide]
37.5	C[C@@H]1C[C@H](NS(C)(=O)=O)C2COC3CCC(CC3)c3nc(ccc3C(F)(F)F)N(C)CCCOC(=O)N21 (some centres unmarked) [Example 94, N-((2^1S,2^4S,5^2R,5^3S,5^5R)-5^5,1^1-dimethyl-6-oxo-1^3-(trifluoromethyl)-3,7-dioxa-11-aza-1(2,6)-pyridina-5(2,1)-pyrrolidina-2(1,4)-cyclohexanacycloundecaphane-5^3-yl)methanesulfonamid]
94.7	C[C@@H]1C[C@H](NS(C)(=O)=O)C2COC3CCC(CC3)c3nc(ccc3C(F)(F)F)OCCCOC(=O)N21 (some centres unmarked) [Example 69, N-((2^1S,2^4S,5^2R,5^3S,5^5R)-5^5-methyl-6-oxo-1^3-(trifluoromethyl)-3,7,11-trioxa-1(2,6)-pyridina-5(2,1)-pyrrolidina-2(1,4)-cyclohexanacycloundecaphane-5^3-yl)methanesulfonamide]
102	C[C@@H]1C[C@H](NS(C)(=O)=O)C2COC3CCC(CC3)c3nc(ccc3C(F)(F)F)OCCOC(=O)N21 (some centres unmarked) [Example 68, N-((2^1S,2^4S,5^2R,5^3S,5^5R)-5^5-methyl-6-oxo-1^3-(trifluoromethyl)-3,7,10-trioxa-1(2,6)-pyridina-5(2,1)-pyrrolidina-2(1,4)-cyclohexanacyclodecaphane-5^3-yl)methanesulfonamide]
100	C[C@@H]1C[C@H](NS(C)(=O)=O)C2COC3CCC(CC3)c3cccc(c3)OCCCOC(=O)N21 (some centres unmarked) [Example 18, N-((2^1S,2^4S, 5^2R,5^3S,5^5R)-5^5-methyl-6-oxo-3,7,11-trioxa-5(2,1)-pyrrolidina-1(1,3)-benzena-2(1,4)-cyclohexana-cyclounde-caphane-5^3-yl) methanesulfonamide]
97.3	CCS(=O)(=O)N[C@H]1C[C@@H](C)N2C(=O)OCCCOc3cc(OC)cc(n3)C3CCC(CC3)OCC12 (some centres unmarked) [Example 106, N-((2^1R,2^4R,5^2R,5^3S,5^5R)-1^4-methoxy-5^5-methyl-6-oxo-3,7,11-trioxa-1(2,6)-pyridina-5(2,1)-pyrrolidina-2(1,4)-cyclohex-anacycloundecaphane-5^3-yl)ethanesulfonamide]

same assay, conditions: hOX2R IP-One; percentage of mean max effect of a reference compound at 1 uM with 100% activity

Emax (%)	Compound
5.0	CS(=O)(=O)NC1CCCN2C(=O)CCCOc3cccc(c3)C3CCC(C3)OCC12 (single isomer, unassigned) [Example 34, N-((2^1S,2^3R,5^2R,5^3S)-6-oxo-3,10-dioxa-5(2,1)-piperidina-1(1,3)-benzena-2(1,3)-cyclopentanacyclodecaphane-5^3-yl)methanesulfonamide]
4.4	CN(C)S(=O)(=O)NC1CCCN2C(=O)OCCc3ccccc3C3CCC(CC3)OCC12 (single isomer, unassigned) [Example 39, N′-((2^1S,2^4S,5^2R,5^3S)-6-oxo-3,7-dioxa-5(2,1)-piperidina-1(1,2)-benzena-2(1,4)-cyclohexanacyclononaphane-5^3-yl)-N,N-dimethyl-sulfamide]
100.5	CN(C)S(=O)(=O)NC1CCN2C(=O)OCCCCc3cccc(c3)C3CCC(CC3)OCC12 (centres unmarked) [Example 21, N′-((2^1S,2^4S,5^2R,5^3S)-6-oxo-3,7-dioxa-5(2,1)-pyrrolidina-1(1,3)-benzena-2(1,4)-cyclohexanacycloundecaphane-5^3-yl)-N,N-dimethyl-sulfamide]
100.8	CN(C)S(=O)(=O)NC1CCCN2C(=O)OCCc3ccccc3C3CCC(CC3)OCC12 (single isomer, unassigned) [Example 38, N′-((2^1S,2^4S,5^2R,5^3S)-6-oxo-3,7-dioxa-5(2,1)-piperidina-1(1,2)-benzena-2(1,4)-cyclohexanacyclononaphane-5^3-yl)-N,N-dimethyl-sulfamide]
